Laboratory results: patent US20240228482A1, “COMPOUNDS, COMPOSITIONS AND METHODS OF TREATING CANCER” (HOTSPOT THERAPEUTICS, INC., priority 2021, published 2024)

target: T1, CBL-B (Homo sapiens, UniProt Q13191); assay: CBL-B TR-FRET IC50 screening (E1/E2 ubiquitination, Biotin-Ubiquitin, Anti GST-Tb donor / Streptavidin-d2 acceptor); type: biochemical; conditions: CBL-B 10 nM final; 11-point titration from 100 uM; binned A-F; read-out: CBL-B TR-FRET activity IC50
T1 construct: GST
T1 sequence (Q13191 whole entry): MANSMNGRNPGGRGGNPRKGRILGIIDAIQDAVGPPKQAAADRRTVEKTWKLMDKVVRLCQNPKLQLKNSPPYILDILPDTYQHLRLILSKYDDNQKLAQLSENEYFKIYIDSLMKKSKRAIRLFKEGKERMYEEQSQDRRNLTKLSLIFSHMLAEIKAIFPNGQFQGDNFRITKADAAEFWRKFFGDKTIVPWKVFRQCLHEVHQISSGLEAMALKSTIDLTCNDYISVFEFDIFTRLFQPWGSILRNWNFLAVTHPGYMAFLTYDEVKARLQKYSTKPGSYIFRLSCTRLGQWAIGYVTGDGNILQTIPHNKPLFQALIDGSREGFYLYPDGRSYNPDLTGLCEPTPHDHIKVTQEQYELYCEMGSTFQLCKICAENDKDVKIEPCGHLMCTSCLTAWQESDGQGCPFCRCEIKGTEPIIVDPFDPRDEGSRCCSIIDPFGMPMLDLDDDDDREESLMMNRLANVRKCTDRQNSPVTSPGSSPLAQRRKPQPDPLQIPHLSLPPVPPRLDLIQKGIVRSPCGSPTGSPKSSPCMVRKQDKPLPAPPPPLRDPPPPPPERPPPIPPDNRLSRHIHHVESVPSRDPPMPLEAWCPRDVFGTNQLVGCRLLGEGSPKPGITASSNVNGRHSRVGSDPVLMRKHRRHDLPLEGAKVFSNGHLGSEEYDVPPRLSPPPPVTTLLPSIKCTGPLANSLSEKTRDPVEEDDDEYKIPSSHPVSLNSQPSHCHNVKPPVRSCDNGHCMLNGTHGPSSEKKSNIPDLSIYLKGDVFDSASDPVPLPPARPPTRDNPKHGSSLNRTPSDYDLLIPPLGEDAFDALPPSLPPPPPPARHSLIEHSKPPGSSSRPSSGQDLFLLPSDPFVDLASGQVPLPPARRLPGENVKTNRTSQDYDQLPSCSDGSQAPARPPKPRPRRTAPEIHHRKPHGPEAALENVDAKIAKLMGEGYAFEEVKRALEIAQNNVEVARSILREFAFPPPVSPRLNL

| IC50 [nM] | Compound |
| --- | --- |
| 1000 to 3000 | [2H]C([2H])([2H])n1cnnc1[C@H](c1cccc(-n2cc3c(C(F)(F)F)cc(CN4CCO[C@H](C)C4)cn3c2=O)c1)C1CCC1 (single isomer, unassigned) [Compound 138] |
| < 100 | [2H]C([2H])([2H])n1cnnc1CC1(c2cccc(-n3cc4c(C(F)(F)F)cc([C@@H](C)N5CCC[C@H](C)C5)cn4c3=O)c2)COC1 [Compound 278_P2] |
| 301 to 1000 | COCCN(C)Cc1cc(C(F)(F)F)c2cn(-c3cccc(C4(Cc5nncn5C)COC4)c3)c(=O)n2c1 [Compound 51] |
| 3000 to 10000 | Cn1cnnc1CC1(c2cc(Br)cc(-n3cc4c(C(F)(F)F)cccn4c3=O)c2)COC1 [Compound 180] |
| > 10000 | CN1CCC(c2cc(C(F)(F)F)c3cn(-c4cccc(C5(Cc6nncn6C)COC5)c4)c(=O)n3c2)C1 (stereo not shown) [Compound 83] |
| 3000 to 10000 | C[C@@H](Cc1nncn1C)c1cccc(-n2cc3c(C(F)(F)F)cccn3c2=O)c1 [Compound 3] |
| < 100 | COC1CCN(Cc2cc(C(F)(F)F)c3cn(-c4cccc(C5(Cc6nncn6C)COC5)c4)c(=O)n3c2)CC1 [Compound 49] |
| < 100 | COC(=O)N1CCN(Cc2cc(C(F)(F)F)c3cn(-c4cccc([C@H](c5nncn5C)C5CCC5)c4)c(=O)n3c2)CC1 [Compound 351_P2] |
| < 100 | C[C@@H]1CN(Cc2cc(C(F)(F)F)c3cn(-c4cccc([C@H](c5nncn5C)C5CCC5)c4)c(=O)n3c2)CCO1 [Compound 244] |
| < 100 | C[C@@H]1CCCCN(Cc2cc(C(F)(F)F)c3cn(-c4cccc([C@H](c5nncn5C)C5CCC5)c4)c(=O)n3c2)C1 (single isomer, unassigned) [Compound 274] |
| 100 to 300 | COc1cc(-n2cc3c(C(F)(F)F)cc(Br)cn3c2=O)cc(C2(Cc3nncn3C)COC2)c1 [Compound 105] |
| 1000 to 3000 | Cn1cnnc1[C@@H](c1cccc(-n2cc3c(C(F)(F)F)cc(CN4CCN(C=O)CC4)cn3c2=O)c1)C1CCC1 [Compound 340_P2] |
| 100 to 300 | Cn1cnnc1CC1(c2cccc(-n3cc4c(C(F)(F)F)cc(Br)cn4c3=O)c2)COC1 [Compound 7] |
| > 10000 | Cc1scnc1[C@H](c1cccc(-n2cc3c(C(F)(F)F)cc(CN4CCC[C@H](C)C4)cn3c2=O)c1)C1CCC1 (single isomer, unassigned) [Compound 282] |
| < 100 | [2H]C([2H])([2H])n1cnnc1[C@@H](c1cccc(-n2cc3c(C(F)(F)F)cc(CN4CCC[C@H](C)C4)cn3c2=O)c1)C1CCC1 (single isomer, unassigned) [Compound 135] |
| < 100 | C[C@H](c1cc(C(F)(F)F)c2cn(-c3cccc(C4([C@@H](F)c5nncn5C)COC4)c3)c(=O)n2c1)N1CCC2(CC2)C1 [Compound 55] |

| IC50 [nM] | Compound |
| --- | --- |
| < 100 | Cn1cnnc1[C@@H](c1cccc(-n2cc3c(C(F)(F)F)cc(CN4CCC(=O)N4)cn3c2=O)c1)C1CCC1 [Compound 258] |
| < 100 | CN(Cc1cc(C(F)(F)F)c2cn(-c3cccc([C@H](c4nncn4C)C4CCC4)c3)c(=O)n2c1)CC1COC1 [Compound 347] |
| < 100 | C[C@H](c1cc(C(F)(F)F)c2cn(-c3cccc(C4(Cc5nncn5C)COC4)c3)c(=O)n2c1)N1CC[C@H](F)C1 [Compound 40] |
| < 100 | Cn1cnnc1CC1(c2cccc(-n3cc4c(C(F)(F)F)cc(CN5CCC6(CC6)C5)cn4c3=O)c2)COC1 [Compound 10] |
| 1000 to 3000 | COC1CCN(Cc2cc(C(F)(F)F)c3cn(-c4cccc([C@@H](c5nncn5C)C5CCC5)c4)c(=O)n3c2)CC1 (single isomer, unassigned) [Compound 235] |
| > 10000 | Cn1cnnc1C[C@H]1CCc2c1cccc2-n1cc2c(C(F)(F)F)cccn2c1=O (single isomer, unassigned) [Compound 16] |
| 3000 to 10000 | Cn1cnnc1[C@@H]1C[C@@H]1c1cccc(-n2cc3c(C(F)(F)F)cccn3c2=O)c1 [Compound 43] |
| > 10000 | Cc1cc(-n2cc3c(C(F)(F)F)cc(CN4CCO[C@H](C)C4)cn3c2=O)cc(C2(Cc3nncn3C)COC2)c1 [Compound 277] |
| < 100 | C[C@H]1CCCCN1Cc1cc(C(F)(F)F)c2cn(-c3cccc([C@@H](c4nncn4C)C4CCC4)c3)c(=O)n2c1 [Compound 362_P1] |
| < 100 | Cc1cc(-n2cc3c(C(F)(F)F)cc(CN4CCC[C@H](C)C4)cn3c2=O)cc(C2(Cc3nncn3C)COC2)c1 [Compound 239] |
| < 100 | CC1CC(c2cccc(-n3cc4c(C(F)(F)F)cc(CN5CCO[C@H](C)C5)cn4c3=O)c2)(c2nncn2C)C1 (single isomer, unassigned) [Compound 190] |
| < 100 | C[C@@H]1CCN(Cc2cc(C(F)(F)F)c3cn(-c4cccc([C@H](c5nncn5C)C5CCC5)c4)c(=O)n3c2)C1 [Compound 248] |
| 301 to 1000 | COC1CCN(Cc2cc(C(F)(F)F)c3cn(-c4cccc([C@H](c5nncs5)C5CCC5)c4)c(=O)n3c2)CC1 [Compound 330] |
| 3000 to 10000 | C[C@H]1CCCN(Cc2cc(C(F)(F)F)c3cn(-c4cccc(N(C)Cc5nncn5C)c4)c(=O)n3c2)C1 [Compound 155] |
| < 100 | CC(c1cc(C(F)(F)F)c2cn(-c3cccc(C4(Cc5nncn5C(F)F)COC4)c3)c(=O)n2c1)N1CCC(F)CC1 (single isomer, unassigned) [Compound 97] |

same assay, conditions: Updated Activity, second part of Table 2 (head 'Patent Cmpd No / Updated Activity'); same CBL-B TR-FRET IC50 bins A-F

| Compound | IC50 [nM] |
| --- | --- |
| C[C@H]1CCCN(Cc2cc(C(F)(F)F)c3cn(-c4cccc(C5(c6nncn6C)CC(C)(C)C5)c4)c(=O)n3c2)C1 [Compound 433] | < 100 |

same assay, conditions: second part of Table 2 (head 'Patent Cmpd No / Updated Activity'); same CBL-B TR-FRET IC50 bins A-F; read-out: Updated Activity

| IC50 [nM] | Compound |
| --- | --- |
| < 100 | Cn1cnnc1[C@@H](c1cccc(-n2cc3c(C(F)(F)F)cc(CN4CCNS4(=O)=O)cn3c2=O)c1)C1CCC1 [Compound 542] |
| < 100 | [2H]C([2H])(c1cc(C(F)(F)F)c2cn(-c3cccc([C@H](c4nncn4C)C4CCC4)c3)c(=O)n2c1)N1CCC2(CC2)C1 [Compound 505] |
| > 10000 | Cn1cnnc1[C@H](c1cc(-c2ccsn2)cc(-n2cc3c(C(F)(F)F)cccn3c2=O)c1)C1CCC1 (single isomer, unassigned) [Compound 460] |
| < 100 | C[C@H]1CN(Cc2cc(C(F)(F)F)c3cn(-c4cccc([C@H](c5nncn5C)C5CCC5)c4)c(=O)n3c2)CC[C@@H]1O (single isomer, unassigned) [Compound 588] |
| < 100 | C[C@H]1CCCN(Cc2cc(C(F)(F)F)c3cn(-c4cccc([C@H](c5nncn5C)[C@H]5C[C@@H](O)C5)c4)c(=O)n3c2)C1 (single isomer, unassigned) [Compound 437] |
| 301 to 1000 | CO[C@H]1C[C@@H]([C@@H](c2cccc(-n3cc4c(C(F)(F)F)cc(CN5CCC[C@H](C)C5)cn4c3=O)c2)c2nncn2C)C1 (single isomer, unassigned) [Compound 551] |
| < 100 | COC(=O)CN(C)Cc1cc(C(F)(F)F)c2cn(-c3cccc([C@H](c4nncn4C)C4CCC4)c3)c(=O)n2c1 [Compound 521] |
| 301 to 1000 | CO[C@H]1C[C@@](c2cccc(-n3cc4c(C(F)(F)F)cc([C@@H](C)N5CC[C@H](F)C5)cn4c3=O)c2)(c2nncn2C)C1 (single isomer, unassigned) [Compound 615] |
| 3000 to 10000 | [2H]C([2H])(c1cc(C(F)(F)F)c2cn(-c3cccc([C@H](c4nncn4C)C4CCC4)c3)c(=O)n2c1)N1CCC[C@H](C(F)(F)F)C1 [Compound 597_P1] |
| 3000 to 10000 | Cn1cnnc1[C@H](c1cc(-c2ccns2)cc(-n2cc3c(C(F)(F)F)cccn3c2=O)c1)C1CCC1 (single isomer, unassigned) [Compound 458] |
| < 100 | [2H]C([2H])(c1cc(C(F)(F)F)c2cn(-c3cccc([C@H](c4nncn4C)C4CCC4)c3)c(=O)n2c1)N1CCC[C@@H](C(F)(F)F)C1 [Compound 597_P2] |
| > 10000 | Cc1sc(CO)nc1[C@H](c1cccc(-n2cc3c(C(F)(F)F)cc(CN4CCC[C@H](C)C4)cn3c2=O)c1)C1CCC1 (single isomer, unassigned) [Compound 392] |
| < 100 | Cn1cnnc1[C@@H](c1cccc(-n2cc3c(C(F)(F)F)cc(CN4CCN(S(C)(=O)=O)CC4)cn3c2=O)c1)C1CCC1 [Compound 572] |
| < 100 | C[C@@H]1CN(Cc2cc(C(F)(F)F)c3cn(-c4cc(C#N)cc([C@H](c5nncn5C)C5CCC5)c4)c(=O)n3c2)CCO1 (single isomer, unassigned) [Compound 509] |
| 3000 to 10000 | C[C@H]1CCCN(Cc2cc(C(F)(F)F)c3cn(-c4cccc([C@@H](c5nncn5C)C5(O)CCC5)c4)c(=O)n3c2)C1 (single isomer, unassigned) [Compound 475] |
| > 10000 | COCc1csc([C@@H](c2cccc(-n3cc4c(C(F)(F)F)cc(CN5CCC[C@H](C)C5)cn4c3=O)c2)C2CCC2)n1 (single isomer, unassigned) [Compound 389] |
| < 100 | COCCS(=O)(=O)N(C)Cc1cc(C(F)(F)F)c2cn(-c3cccc([C@H](c4nncn4C)C4CCC4)c3)c(=O)n2c1 [Compound 594] |
| < 100 | CO[C@H]1C[C@H]([C@@H](c2cccc(-n3cc4c(C(F)(F)F)cc(CN5CCC[C@H](C)C5)cn4c3=O)c2)c2nncn2C)C1 (single isomer, unassigned) [Compound 553] |
| > 10000 | Cn1cnnc1[C@H](c1cc(C#N)cc(-n2cc3c(C(F)(F)F)cc(CN4CCC(C)(F)CC4)cn3c2=O)c1)C1CCC1 (single isomer, unassigned) [Compound 516] |
| < 100 | Cn1cnnc1[C@H](c1cc(C#N)cc(-n2cc3c(C(F)(F)F)cc(CN4CC5(CC5)C4)cn3c2=O)c1)C1CCC1 (single isomer, unassigned) [Compound 560] |
| < 100 | CN1CC[C@]2(CCN(Cc3cc(C(F)(F)F)c4cn(-c5cccc([C@H](c6nncn6C)C6CCC6)c5)c(=O)n4c3)C2)C1=O (single isomer, unassigned) [Compound 621] |
| < 100 | C[C@@H]1C[C@H](C)CN(Cc2cc(C(F)(F)F)c3cn(-c4cccc([C@H](c5nncn5C)C5CCC5)c4)c(=O)n3c2)C1 [Compound 449] |
| < 100 | Cn1cnnc1[C@@H](c1cccc(-n2cc3c(C(F)(F)F)cc(CN4CCC[C@@](C)(O)C4)cn3c2=O)c1)C1CCC1 (single isomer, unassigned) [Compound 569] |
